The results in this text go back to ChEMBL document CHEMBL4130400, “Development of GLUT4-selective antagonists for multiple myeloma therapy” (Eur J Med Chem, 2017).

The target in series [1] is T1, Solute carrier family 2, facilitated glucose transporter member 8 (Homo sapiens, UniProt Q9NY64).
T1 sequence (Q9NY64 whole entry): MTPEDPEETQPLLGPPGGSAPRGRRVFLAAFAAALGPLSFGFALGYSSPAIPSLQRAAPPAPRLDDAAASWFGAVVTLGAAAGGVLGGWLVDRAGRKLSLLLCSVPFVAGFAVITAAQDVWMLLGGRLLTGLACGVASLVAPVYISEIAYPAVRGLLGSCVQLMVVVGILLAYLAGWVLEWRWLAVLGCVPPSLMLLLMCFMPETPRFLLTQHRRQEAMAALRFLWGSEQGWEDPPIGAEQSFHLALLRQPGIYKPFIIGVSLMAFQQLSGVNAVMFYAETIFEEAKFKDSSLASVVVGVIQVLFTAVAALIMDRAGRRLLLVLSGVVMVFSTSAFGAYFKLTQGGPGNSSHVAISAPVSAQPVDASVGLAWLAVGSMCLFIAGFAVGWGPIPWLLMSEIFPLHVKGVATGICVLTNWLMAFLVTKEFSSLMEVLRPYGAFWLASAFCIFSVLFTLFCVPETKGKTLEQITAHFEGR
Briefly: Antagonist activity at human GLUT8 expressed in HEK293 cells transfected with GLUT1 shRNA assessed as inhibition of [3H]2-deoxy-D-glucose uptake preincubated for 5 mins followed by [3H]2-deoxy-D-glucose addition and measured after 6 mins. In kind it is cell-based.

The target in series [2] is T2, Solute carrier family 2, facilitated glucose transporter member 4 (Homo sapiens) (UniProt P14672).
T2 sequence (whole entry): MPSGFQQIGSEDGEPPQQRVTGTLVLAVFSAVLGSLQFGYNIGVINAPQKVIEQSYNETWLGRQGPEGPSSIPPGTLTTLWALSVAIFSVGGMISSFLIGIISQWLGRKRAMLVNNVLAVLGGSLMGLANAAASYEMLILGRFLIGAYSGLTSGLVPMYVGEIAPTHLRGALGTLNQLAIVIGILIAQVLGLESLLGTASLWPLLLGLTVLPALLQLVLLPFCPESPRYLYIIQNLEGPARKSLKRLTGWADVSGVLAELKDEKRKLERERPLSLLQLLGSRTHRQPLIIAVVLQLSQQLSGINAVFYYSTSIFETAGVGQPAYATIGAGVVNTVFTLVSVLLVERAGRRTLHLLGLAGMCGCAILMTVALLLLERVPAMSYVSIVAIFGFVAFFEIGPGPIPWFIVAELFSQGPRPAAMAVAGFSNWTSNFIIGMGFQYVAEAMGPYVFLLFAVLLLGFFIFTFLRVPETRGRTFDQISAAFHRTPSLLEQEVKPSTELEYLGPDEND
Briefly: Antagonist activity at GLUT4 in human MM1S cells assessed as increase in sensitivity to melphalan-induced cytotoxicity by measuring cell death at 10 uM after 72 hrs by CellTiter-Glo assay. It is filed as cell-based. Background: Cellular ATP, detected with luciferase, serves as a proxy for viable cell number.

In series [3] the target is T2, Solute carrier family 2, facilitated glucose transporter member 4 (Homo sapiens). Briefly: Antagonist activity at GLUT4 in human MM1S cells assessed as increase in sensitivity to dexamethasone-induced cytotoxicity by measuring cell death at 10 uM after 72 hrs by CellTiter-Glo assay. It is filed as cell-based.
Series [4] concerns Bone marrow cell. Briefly: Cytotoxicity in multiple myeloma patient derived CD38(-)/CD45(-) non-myeloma bone marrow cells at 10 uM in presence of ABT-199 incubated for 48 hrs by CellTiter-Glo assay. It is filed as cell-based. The settings on record: human.
Series [5] deals with T3, Solute carrier family 2, facilitated glucose transporter member 1 (Homo sapiens, UniProt P11166).
T3 sequence (P11166 whole entry): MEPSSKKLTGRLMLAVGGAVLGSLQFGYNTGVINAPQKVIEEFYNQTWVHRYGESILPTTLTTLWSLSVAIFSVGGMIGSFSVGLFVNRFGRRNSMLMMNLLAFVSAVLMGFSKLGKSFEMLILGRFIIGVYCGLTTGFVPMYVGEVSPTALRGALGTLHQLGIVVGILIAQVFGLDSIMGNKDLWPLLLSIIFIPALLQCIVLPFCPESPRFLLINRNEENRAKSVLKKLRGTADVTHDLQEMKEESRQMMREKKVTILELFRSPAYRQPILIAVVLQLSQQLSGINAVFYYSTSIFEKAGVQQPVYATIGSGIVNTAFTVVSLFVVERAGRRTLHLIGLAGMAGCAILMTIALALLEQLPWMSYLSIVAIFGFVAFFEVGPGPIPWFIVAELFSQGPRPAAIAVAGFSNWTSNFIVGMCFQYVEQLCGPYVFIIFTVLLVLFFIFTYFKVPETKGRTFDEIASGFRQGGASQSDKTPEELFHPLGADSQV
Briefly: Antagonist activity at human GLUT1 expressed in HEK293 cells transfected with GLUT1 shRNA assessed as inhibition of [3H]2-deoxy-D-glucose uptake preincubated for 5 mins followed by [3H]2-deoxy-D-glucose addition and measured after 6 mins. It is filed as cell-based.

For series [6], the system named is Bone marrow cell. Briefly: Cytotoxicity in multiple myeloma patient derived CD38(-)/CD45(-) non-myeloma bone marrow cells at 10 uM incubated for 48 hrs by CellTiter-Glo assay. In kind it is cell-based. The settings on record: human.
The target of series [7] is T4, Solute carrier family 2, facilitated glucose transporter member 4 (Rattus norvegicus) (UniProt P19357).
T4 sequence (whole entry): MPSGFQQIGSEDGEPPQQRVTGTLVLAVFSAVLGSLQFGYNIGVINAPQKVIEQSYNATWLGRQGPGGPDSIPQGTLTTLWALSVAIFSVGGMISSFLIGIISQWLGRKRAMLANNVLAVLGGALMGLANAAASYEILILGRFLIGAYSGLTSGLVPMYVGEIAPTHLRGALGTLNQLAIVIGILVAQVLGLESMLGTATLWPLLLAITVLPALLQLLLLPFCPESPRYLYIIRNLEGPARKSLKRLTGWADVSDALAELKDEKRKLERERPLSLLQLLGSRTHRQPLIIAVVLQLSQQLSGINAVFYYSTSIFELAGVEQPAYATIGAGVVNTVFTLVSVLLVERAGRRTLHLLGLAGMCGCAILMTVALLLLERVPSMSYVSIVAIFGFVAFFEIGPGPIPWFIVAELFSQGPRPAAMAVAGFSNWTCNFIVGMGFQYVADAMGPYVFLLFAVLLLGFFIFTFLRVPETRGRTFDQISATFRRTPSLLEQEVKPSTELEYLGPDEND
Briefly: Displacement of ATB-BMPA from rat C-terminal 6His/Myc-tagged GLUT4 expressed in HEK293 cell low density microsome assessed as ATB-BMPA binding level at 20 uM preincubated for 10 mins followed by ATB-BMPA addition measured after 10 mins relative to control. In kind it is cell-based.

The next series has as its system JJN-3. Briefly: Inhibition of [3H]2-deoxy-D-glucose uptake in human JJN-3 cells transfected with GLUT4 shRNA preincubated for 5 to 6 mins followed by [3H]2-deoxy-D-glucose addition measured after 4 to 6 mins. In kind it is functional, cell-based.
For series [8], the target named is T2, Solute carrier family 2, facilitated glucose transporter member 4 (Homo sapiens). Briefly: Antagonist activity at GLUT4 in human JJN-3 cells assessed as increase in sensitivity to ABT-199-induced cytotoxicity by measuring cell death at 10 uM after 72 hrs by CellTiter-Glo assay. In kind it is cell-based.
The target is the same in series [9]. Briefly: Antagonist activity at GLUT4 in multiple myeloma patient derived CD38+ and phyocerythrin-negative myeloma cells assessed as increase in sensitivity to ABT-199-induced cytotoxicity by measuring cell death at 10 uM after 48 hrs by CellTiter-Glo assay.
The target is the same in series [10]. Briefly: Antagonist activity at GLUT4 in human […] cells assessed as increase in sensitivity to ABT-199-induced cytotoxicity by measuring cell death at 10 uM after 72 hrs by CellTiter-Glo assay. It is filed as cell-based.

Calls of active or inactive are those of the source. The rule behind the calls is not given here.

As usually defined, the IC50 is the concentration that gives 50% inhibition.

As to `COc1ccc(CC(=O)N(Cc2ccncc2)Cc2cccc(OCCc3ccc(F)cc3)c2)cc1`, the half-inhibitory concentration (IC50) in series [1] and in [5] was over 100 µM in each case. Moreover, in series [2], the outcome was Active. Moreover, the inhibition result (in series [3]; in the series with JJN-3; in [8]; in series [9]; in series [10]) was “Active” throughout. Also, the values for the Activity result (in the series on Bone marrow cell [4]; in the series with Bone marrow cell [6]; in series [7]) were “Non-Toxic”, “Non-Toxic” and 64%, respectively.
